# Where two headings read alike, the source gives them in different places.
# Key:
# IKBKE = system: IKBKE; set-up: method as in Klaeger et al. (2017); conditions: lysate 4 cell line mix (Colo205, K-562, MV-4-11, and SK-N-BE(2)), Kinobeads y, ref Klaeger et al. (2017); cited from earlier work
# TGFBR2 = system: TGFBR2; set-up: method as in Klaeger et al. (2017); conditions: lysate 4 cell line mix (Colo205, K-562, MV-4-11, and SK-N-BE(2)), Kinobeads y, ref Klaeger et al. (2017); cited from earlier work
# PDGFRB = system: PDGFRB; set-up: method as in Klaeger et al. (2017); conditions: lysate 4 cell line mix (Colo205, K-562, MV-4-11, and SK-N-BE(2)), Kinobeads y, ref Klaeger et al. (2017); cited from earlier work
# PRKAB2 = system: PRKAB2; set-up: method as in Klaeger et al. (2017); conditions: lysate 4 cell line mix (Colo205, K-562, MV-4-11, and SK-N-BE(2)), Kinobeads y, ref Klaeger et al. (2017); cited from earlier work
# MOB1A;MOB1B = system: MOB1A;MOB1B; set-up: method as in Klaeger et al. (2017); conditions: 4 cell line mix lysate, Kinobeads y, ref Klaeger et al. (2017); cited from earlier work
# RASSF5 = system: RASSF5; set-up: method as in Klaeger et al. (2017); conditions: RASSF5, 4 cell line mix lysate, Kinobeads y, ref Klaeger et al. (2017); cited from earlier work
# ERN2 = system: ERN2; set-up: method as in Klaeger et al. (2017); conditions: ERN2, 4 cell line mix lysate, Kinobeads y, ref Klaeger et al. (2017); cited from earlier work
# MAP3K11 = conditions: MAP3K11, 5 cell line mix lysate, Kinobeads ε, ref Reinecke et al. (2023), cited from earlier work
# MAP4K3 = system: MAP4K3; set-up: method as in Reinecke et al. (2023); conditions: MAP4K3, 5 cell line mix lysate, Kinobeads ε, ref Reinecke et al. (2023), cited from earlier work
# HCK = molecular target: HCK; set-up: method as in Reinecke et al. (2023); conditions: 5 cell line mix lysate, Kinobeads ε, ref Reinecke et al. (2023), cited from earlier work
# MAPK7 = system: MAPK7; set-up: method as in Reinecke et al. (2023); conditions: MAPK7, 5 cell line mix lysate, Kinobeads ε, ref Reinecke et al. (2023), cited from earlier work
# Capan-1 cells = test: Drug combination viability screen (ATPlite, 72 h); type: cell-based, human; set-up: AUC: unit not given beside the values; Reponse: unit not given here; conditions: for EC50: Homo sapiens, CAPAN-1;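 on AUC: area under vehicle-normalized viability curve scaled 0 to 100 percent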;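 on Curve bottom: fraction of vehicle control viability from four-parameter log-logistic fit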
# Method: (§1) Cell viability was assessed by measuring ATP levels to indicate metabolic activity.
# (§2) Afterward, small amounts were transferred to 384-well intermediate plates (Greiner Bio-One GmbH, Germany). […] For drug combination screening, 1000 to 5000 cells were seeded into 384-well plates (CulturPlate™, Perkin Elmer, MA, USA) using a Multidrop™ Combi Reagent Dispenser (Thermo Scientific, MA, USA) in 50 µl medium per well 24 h prior to drug treatment (seeding densities see Appendix Table S1). […] The final DMSO concentration in each well was 0.2%. […] Eight wells per plate without library drug served as negative controls, and sixteen wells per plate containing 5 µM Staurosporine served as positive controls. Control plates not containing any drug were used to correct for incubation effects, and data quality was assessed by calculation of Z-prime of positive and negative controls according to1 Z-prime=1−3SDpos+3SDneg/[…] where SD is the standard deviation. […] Dose–response curves from the experimental and hypothetical data were compared, and shifts in AUC were used to describe combination effects (AUC∆ = AUChypothetical − AUCexperimental). […] Only combinations with R^2 > 0.8 in both conditions were considered in the synergy analysis.
# Dan-G cells = test: Drug combination viability screen (ATPlite, 72 h); type: cell-based, human; set-up: AUC: unit not given beside the values; Reponse: unit not given here; conditions: for EC50: Homo sapiens;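 on AUC: area under vehicle-normalized viability curve scaled 0 to 100 percent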;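 on Curve bottom: fraction of vehicle control viability from four-parameter log-logistic fit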
# Method: as §1, §2
# FAMPAC cells = test: Drug combination viability screen (ATPlite, 72 h); type: cell-based, human; set-up: AUC: unit not given beside the values; Reponse: unit not given here; conditions: for EC50: Homo sapiens;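 on AUC: area under vehicle-normalized viability curve scaled 0 to 100 percent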;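 on Curve bottom: fraction of vehicle control viability from four-parameter log-logistic fit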
# Method: as §1, §2
structure (smiles),measurement,setting,value
C[C@]12O[C@H](C[C@]1(O)CO)n1c3ccccc3c3c4c(c5c6ccccc6n2c5c31)CNC4=O [Lestaurtinib],EC50,IKBKE,1030 nM
same,EC50,PRKAB2,3520 nM
same,EC50,MOB1A;MOB1B,34 nM
same,EC50,RASSF5,73 nM
same,EC50,ERN2,373 nM
COc1cc(N2CCC(N3CCN(C)CC3)CC2)ccc1Nc1ncc(Cl)c(Nc2ccccc2P(C)(C)=O)n1 [Brigatinib],EC50,MAP3K11,3200 nM
same,pKDapp,MAP3K11,5.65
same,Kd,MAP3K11; read-out: KDapp,2230 nM
same,EC50,MAP4K3,1160 nM
same,pKDapp,MAP4K3,6.12
same,Kd,MAP4K3; read-out: KDapp,759 nM
same,Kd,HCK; read-out: KDapp,776 nM
same,EC50,HCK,1500 nM
same,pKDapp,HCK,6.11
same,EC50,MAPK7,1060 nM
same,pKDapp,MAPK7,6.08
same,Kd,MAPK7; read-out: KDapp,828 nM
"Nc1ccn([C@@H]2O[C@H](CO)[C@@H](O)C2(F)F)c(=O)n1 [GEM, Gemcitabine]",Reponse,"Capan-1 cells; Capan-1, R1, 13.72 nM",1419520
same,Reponse,"Capan-1 cells; Capan-1, R1, 41.15 nM",1052200
same,Reponse,"Capan-1 cells; Capan-1, R1, […] nM",1039880
same,Reponse,"Capan-1 cells; Capan-1, R1, 370.37 nM",891520
same,Reponse,"Capan-1 cells; Capan-1, R1, 1111.11 nM",819880
same,Reponse,"Capan-1 cells; Capan-1, R1, 3333.33 nM",826400
same,Reponse,"Capan-1 cells; Capan-1, R1, 10000 nM",882520
same,Reponse,"Capan-1 cells; Capan-1, R2, 13.72 nM",1725080
same,Reponse,"Capan-1 cells; Capan-1, R2, 41.15 nM",1554080
same,Reponse,"Capan-1 cells; Capan-1, R2, […] nM",1198840
same,Reponse,"Capan-1 cells; Capan-1, R2, 370.37 nM",1201400
same,Reponse,"Capan-1 cells; Capan-1, R2, 1111.11 nM",991280
same,Reponse,"Capan-1 cells; Capan-1, R2, 3333.33 nM",798760
same,Reponse,"Capan-1 cells; Capan-1, R2, 10000 nM",1054200
same,Curve bottom,"Capan-1 cells; Capan-1, GEM curve fit",0.16
same,Curve effect size,"Capan-1 cells; Capan-1, GEM curve fit",0.84
same,Curve slope,"Capan-1 cells; Capan-1, GEM curve fit",1.86
same,Curve top,"Capan-1 cells; Capan-1, GEM curve fit",1.03
same,AUC,"Capan-1 cells; Capan-1, GEM curve fit, in %",31.71
same,EC50,Capan-1 cells; read-out: EC50,1.26 nM
same,EC50,Capan-1 cells; read-out: pEC50 (converted),1.26 nM
same,Reponse,"Dan-G cells; Dan-G, R1, 13.72 nM",414760
same,Reponse,"Dan-G cells; Dan-G, R1, 41.15 nM",446720
same,Reponse,"Dan-G cells; Dan-G, R1, […] nM",403560
same,Reponse,"Dan-G cells; Dan-G, R1, 370.37 nM",418200
same,Reponse,"Dan-G cells; Dan-G, R1, 1111.11 nM",322600
same,Reponse,"Dan-G cells; Dan-G, R1, 3333.33 nM",330080
same,Reponse,"Dan-G cells; Dan-G, R1, 10000 nM",365160
same,Reponse,"Dan-G cells; Dan-G, R2, 13.72 nM",688800
same,Reponse,"Dan-G cells; Dan-G, R2, 41.15 nM",616960
same,Reponse,"Dan-G cells; Dan-G, R2, […] nM",613120
same,Reponse,"Dan-G cells; Dan-G, R2, 370.37 nM",664240
same,Reponse,"Dan-G cells; Dan-G, R2, 1111.11 nM",563000
same,Reponse,"Dan-G cells; Dan-G, R2, 3333.33 nM",536360
same,Reponse,"Dan-G cells; Dan-G, R2, 10000 nM",535080
same,Curve bottom,"Dan-G cells; Dan-G, GEM curve fit",0.11
same,Curve effect size,"Dan-G cells; Dan-G, GEM curve fit",0.89
same,Curve slope,"Dan-G cells; Dan-G, GEM curve fit",3.23
same,Curve top,"Dan-G cells; Dan-G, GEM curve fit",0.99
same,AUC,"Dan-G cells; Dan-G, GEM curve fit, in %",25.98
same,EC50,Dan-G cells; read-out: EC50,1.1 nM
same,EC50,Dan-G cells; read-out: pEC50 (converted),1.1 nM
same,Reponse,"FAMPAC cells; FAMPAC, R1, 13.72 nM",385920
same,Reponse,"FAMPAC cells; FAMPAC, R1, 41.15 nM",215680
same,Reponse,"FAMPAC cells; FAMPAC, R1, […] nM",157840
same,Reponse,"FAMPAC cells; FAMPAC, R1, 370.37 nM",175320
same,Reponse,"FAMPAC cells; FAMPAC, R1, 1111.11 nM",225320
same,Reponse,"FAMPAC cells; FAMPAC, R1, 3333.33 nM",238760
same,Reponse,"FAMPAC cells; FAMPAC, R1, 10000 nM",195520
same,Reponse,"FAMPAC cells; FAMPAC, R2, 13.72 nM",606360
same,Reponse,"FAMPAC cells; FAMPAC, R2, 41.15 nM",377000
same,Reponse,"FAMPAC cells; FAMPAC, R2, […] nM",333400
same,Reponse,"FAMPAC cells; FAMPAC, R2, 370.37 nM",317560
same,Reponse,"FAMPAC cells; FAMPAC, R2, 1111.11 nM",328240
same,Reponse,"FAMPAC cells; FAMPAC, R2, 3333.33 nM",349400
same,Reponse,"FAMPAC cells; FAMPAC, R2, 10000 nM",314920
same,Curve bottom,"FAMPAC cells; FAMPAC, GEM curve fit",0.05
same,Curve effect size,"FAMPAC cells; FAMPAC, GEM curve fit",0.95
same,Curve slope,"FAMPAC cells; FAMPAC, GEM curve fit",2.01
same,Curve top,"FAMPAC cells; FAMPAC, GEM curve fit",0.99
same,AUC,"FAMPAC cells; FAMPAC, GEM curve fit, in %",25.43
same,EC50,FAMPAC cells; read-out: EC50,1.71 nM
same,EC50,FAMPAC cells; read-out: pEC50 (converted),1.7 nM

# Source: paper PMC11876601 (Molecular Systems Biology, 2025)
